Activity calls are given as the source filed them. How the calls were made is not given here.
The compounds below were run against X-box-binding protein 1 (Homo sapiens) (UniProt P17861) (assay: XBP1 reporter suppression in cells – counter-screen, dose response (AID 504313;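 further: CHO cells carrying an XBP1 reporter stimulated with tunicamycin; potency is for inhibition of the tunicamycin-induced reporter signal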)). Conditions: XBP1 reporter cell assay, percent of control.
`CCn1c(=O)c(C(=O)Nc2nc3ccccc3[nH]2)c(O)c2ccccc21` was tested, and the IC50 was “inactive”.
`O=C(/C=C/c1cccc(C(F)(F)F)c1)Nc1cccc(C(F)(F)F)c1` was tested, and the IC50 was “inactive”.
For `Cc1ccc2c(C)nc(Nc3nc(CSc4nc5ccccc5[nH]4)cc(=O)[nH]3)nc2c1`, the IC50 was “inactive”.
For `COc1ccc(Cn2c(SCc3cc(C)ccc3C)nc3cc(OC)c(OC)cc3c2=N)cc1`, the IC50 was “inactive”.
In the case of `CCN1C/C(=C/c2ccc(OC)c(O)c2)C(=O)/C(=C/c2ccc(OC)c(O)c2)C1`, the IC50 is reported as “inactive”.
For `N#Cc1c(N)nc(SCC(=O)C23CC4CC(CC(C4)C2)C3)c(C#N)c1-c1ccc(Cl)cc1`, the IC50 was > 10 µM (inactive).
`CCOC(=O)C1=C(C)NC(C)=C(C(=O)OCC)C1/C=C/c1ccccc1` was tested, and the IC50 was “inactive”.
`O=C(CCl)Nc1cccc(-c2cnc3ccccc3n2)c1` was tested, and the IC50 was > 10 µM (inactive).
For `O=C(Nc1ccc(C(F)(F)F)cc1)c1cc(-c2cccnc2)nc2ccc(Br)cc12`, the IC50 was > 10 µM (inactive).
In the case of `CCCCC(CC)Cn1c2nc3ccccc3nc2c2c(=N)oc(C)nc21` (configuration not stated), the IC50 is reported as > 10 µM (inactive).
With `Cc1nc(SCC(=O)Nc2ccc(F)cc2)c(C#N)c(C)c1CC(=O)c1ccc(Br)cc1` the IC50 was > 10 µM (inactive).
With `O=C1c2ccc3c4c(ccc(c24)C(=O)N1c1cccc(O)c1)C(=O)N(c1cccc(O)c1)C3=O` the IC50 was “inactive”.
For `COc1ccc(N=c2oc3ccc(OC)cc3cc2-c2nc3ccccc3[nH]2)cc1`, the IC50 was “inactive”.
For `CCN(CC)S(=O)(=O)c1cccc(NC(=O)Nc2cccc(C(F)(F)F)c2)c1`, the IC50 was “inactive”.
`O=[N+]([O-])c1c(NCCCO)cc(Sc2nc3ccccc3s2)c2nonc12` was tested, and the IC50 was “inactive”.
Work on `O=S(=O)(/C(=C/c1ccc(C(F)(F)F)cc1)c1nc2ccccc2[nH]1)c1ccccc1` yielded an IC50 of 2.22 µM.
In the case of `Cc1cccc(C)c1NC(=O)COc1ccccc1C(=O)Nc1ccc(Br)cn1`, the IC50 is reported as > 10 µM (inactive).
`COc1ccc(NS(=O)(=O)c2ccc(O)c(NC(=O)c3cc4c(C)nn(-c5ccc(F)cc5)c4s3)c2)cc1` was tested, and the IC50 was > 10 µM (inactive).
With `CC1CCN(c2nc3ccc(C(=O)O)cc3s2)CC1` the IC50 was “inactive”.
Compound `CC(C)C[C@H](NC(=O)OC(C)(C)C)c1nnc(SCC(=O)Nc2ccc(Br)cc2)o1` has an IC50 of 4.92 µM.
`O=S1(=O)C=C(Sc2nnc(-c3ccccc3)o2)c2ccccc21` was tested, and the IC50 was “inactive”.
Work on `OCCCNc1nccc(-c2cc(Nc3cccc(Cl)c3)ncn2)n1` yielded an IC50 of 0.3 µM.
In the case of `Cc1cccc(NC(=S)NC(NC(=O)OCc2ccccc2)C(Cl)(Cl)Cl)c1` (configuration not stated), the IC50 is reported as > 10 µM (inactive).
For `O=C(Nc1ccc(C(O)(C(F)(F)F)C(F)(F)F)cc1)c1ccc(Cl)c([N+](=O)[O-])c1`, the IC50 was “inactive”.
`COc1ccc2c(C)nc(Nc3nc(C)c(C)c(=O)[nH]3)nc2c1` was tested, and the IC50 was < 0.16 µM.
`CCOc1ccc(/C=N/NC(=O)c2cc(-c3ccco3)nc3ccccc23)cc1` was tested, and the IC50 was “inactive”.
Compound `CNc1ccc2oc(C[C@H]3O[C@@]4(CC[C@H]3C)O[C@H]([C@H](C)C(=O)c3ccc[nH]3)[C@H](C)C[C@H]4C)nc2c1C(=O)O` has an IC50 of 1.41 µM.
For `Cc1ccc(S(=O)(=O)CC#CCOC(=O)c2ccc([N+](=O)[O-])cc2)cc1`, the IC50 was “inactive”.
For `Nc1c(C(=O)Nc2nc3ccccc3s2)sc2nc(-c3cccs3)ccc12`, the IC50 was “inactive”.
In the case of `Cc1ccc(C(C(=O)NCc2ccco2)N(C(=O)CNC(=O)c2cccs2)c2c(C)cccc2C)cc1` (configuration not stated), the IC50 is reported as > 10 µM (inactive).
`C=C(C(=O)c1ccccc1)C(C)C(=C)C(=O)c1ccccc1` was tested, and the IC50 was “inactive”.
In the case of `Cc1nc2ccccn2c1C(=O)N=Nc1c(O)n(CCC(C)C)c2ccccc12`, the IC50 is reported as > 10 µM (inactive).
With `CC(NC(=O)/C(C#N)=C/c1ccc(Cl)c([N+](=O)[O-])c1)c1ccccc1` (configuration not stated) the IC50 was > 10 µM (inactive).
`Nc1ccc2c(c1)C(=O)C(=O)c1ccccc1-2` was tested, and the IC50 was “inactive”.
`O=C(/C=C/Sc1ncn[nH]1)c1ccc(Cl)cc1` was tested, and the IC50 was “inactive”.
For `C=C(C)COc1ccc(-c2n[nH]c(C)c2-c2ccccc2OC)c(O)c1`, the IC50 was > 10 µM (inactive).
For `O=c1c(Cl)c(Cl)cnn1Cc1nnc(-c2ccccc2Br)o1`, the IC50 was “inactive”.
For `O=S(=O)(Nc1ccccc1)c1ccc(Oc2ncc(C(F)(F)F)cc2Cl)cc1`, the IC50 was 2.15 µM.
With `Nc1c(S(=O)(=O)c2cccc(Cl)c2)c2nc3ccccc3nc2n1/N=C/c1ccc(O)c(O)c1` the IC50 was > 10 µM (inactive).
With `COc1ccc(-c2cc(C3CCN(Cc4cccc(C(F)(F)F)c4)CC3)[nH]n2)cc1` the IC50 was “inactive”.
`C=C1C(=O)O[C@@H]2C[C@@H](C)[C@@H]3C=CC(=O)[C@@]3(C)[C@@H](OC(C)=O)[C@H]12` showed an IC50 of 2.2 µM.
For `CCC(C)(C)c1ccc(Oc2ccc(N)cc2)cc1`, the IC50 was < 0.16 µM.
In the case of `CC[C@@H]1CC=C[C@H]2[C@H]1C(=O)N(Cc1ccccc1)[C@H]2c1ccoc1`, the IC50 is reported as “inactive”.
For `CC(C)Oc1cc(NC(=O)CS(=O)CC(=O)Nc2cccc(C(F)(F)F)c2)c(Cl)cc1Cl` (configuration not stated), the IC50 was “inactive”.
`CCOC(=O)c1c(C(C)(C)C)oc2ccc(O)cc12` was tested, and the IC50 was > 10 µM (inactive).
In the case of `CC(/C=C1\SC(=O)N(CCCC(=O)O)C1=O)=C\c1ccccc1`, the IC50 is reported as < 0.16 µM.
`CCC(C)[C@@H](NC(=O)OC(C)(C)C)c1nnc(S(=O)(=O)Cc2cccc(C)c2)o1` (some centres not stated) gave an IC50 of 4.55 µM.
`C=C(C)Cn1c(N2CCC(Cc3ccccc3)CC2)nc2c1c(=O)[nH]c(=O)n2C` was tested, and the IC50 was > 10 µM (inactive).
`CCCC(NCC(O)COc1ccc(-c2ccccc2)cc1)c1ccccc1` (configuration not stated) was tested, and the IC50 was “inactive”.
`Cc1cc(C(=O)N/N=C/c2ccc(-c3cccc(Cl)c3Cl)o2)n[nH]1` was tested, and the IC50 was > 10 µM (inactive).
With `Fc1ccc(-n2nnnc2-c2cnc(-c3cccs3)nc2C(F)(F)F)cc1` the IC50 was “inactive”.
With `C[C@H]1C[C@@H](C)C(=O)[C@@H]([C@H](O)CC2CC(=O)NC(=O)C2)C1` the IC50 was 0.21 µM.
For `Cc1ccn2cc(-c3cc4ccccc4oc3=O)nc2c1`, the IC50 was “inactive”.
In the case of `COc1ccc(C2=NN(C(=O)c3ccco3)C(c3cc4ccccc4nc3Cl)C2)cc1` (configuration not stated), the IC50 is reported as > 10 µM (inactive).
For `CCCCCCOC(=O)Nc1ccc(S(=O)(=O)Nc2cccc([N+](=O)[O-])c2)cc1`, the IC50 was > 10 µM (inactive).
`O=c1[nH]c(=O)n(Cc2ccco2)c2c1C(C(F)(F)F)(C(F)(F)F)N=C(c1ccc(F)cc1)N2` was tested, and the IC50 was > 10 µM (inactive).
With `O=C(NC(c1ccccc1)c1cc(Cl)c2cccnc2c1O)c1cccnc1` (configuration not stated) the IC50 was “inactive”.
In the case of `C#CC(=O)N(c1cc(OC)ccc1OC)C(C(=O)NC1CCCC1)c1cccs1` (configuration not stated), the IC50 is reported as “inactive”.
For `O=S(=O)(C/C(=C/CO)S(=O)(=O)c1ccccc1)c1ccccc1`, the IC50 was 3.44 µM.
In the case of `COc1ccc(CC2(CO)CCN(CC3=Cc4cc(Cl)ccc4OC3)CC2)cc1`, the IC50 is reported as 2.67 µM.
With `C/C(N)=C(/C#N)C(=O)COC(=O)C1CCC(C(C)(C)C)CC1` (configuration not stated) the IC50 was > 10 µM (inactive).
For `Nc1cc(Cl)ccc1Oc1ccc(Cl)cc1`, the IC50 was “inactive”.
`Cc1ccc(-c2nc(N)sc2-c2ccc(C)cc2)cc1` was tested, and the IC50 was > 10 µM (inactive).
With `CCOC(=O)N=Nc1c2ccccc2c2nc3no[nH]c3nc12` the IC50 was “inactive”.
For `Cc1ccc(C)c(OCc2ccc(C(=O)N3N=C(C(F)F)CC3(O)C(F)F)o2)c1` (configuration not stated), the IC50 was “inactive”.
For `CCCCCCOC(=O)c1ccccc1N`, the IC50 was > 10 µM (inactive).
With `CCc1ccc(C(=O)/C=C/c2ccc([N+](=O)[O-])o2)cc1` the IC50 was > 10 µM (inactive).
With `CCc1ccc(OCC(=O)NC(NC(=S)Nc2ccc(Cl)cc2)C(Cl)(Cl)Cl)cc1` (configuration not stated) the IC50 was “inactive”.
For `Cc1ccc2sc(N(CCCN(C)C)C(=O)c3nc4ccccc4s3)nc2c1C`, the IC50 was “inactive”.
In the case of `COc1ccc(N=CC2=C(O)c3ccccc3C2=O)c(OC)c1`, the IC50 is reported as “inactive”.
`CS(=O)(=O)c1nc(-c2ccccc2)cc(C(F)(F)F)n1` was tested, and the IC50 was “inactive”.
`Cc1ccc(/C=N/N2C(=S)SC(C)(C)C2N(O)C(=O)Nc2ccc([N+](=O)[O-])cc2)cc1` (configuration not stated) gave an IC50 of 3.54 µM.
With `Cc1ccc(N=C2SC(C(=O)Nc3ccc(OC(F)(F)F)cc3)C(N)=C2C(=O)Nc2c(C)cc(C)cc2C)cc1` (configuration not stated) the IC50 was > 10 µM (inactive).
For `CCOc1cc(/C=C2/C(=O)ON=C2C)ccc1OCc1ccccc1F`, the IC50 was > 10 µM (inactive).
In the case of `COC(=O)CS(=O)(=O)c1nnc([C@H](Cc2ccccc2)NC(=O)OC(C)(C)C)o1`, the IC50 is reported as “inactive”.
In the case of `CC1CCC(n2c(=S)[nH]c3ccccc3c2=O)CC1` (configuration not stated), the IC50 is reported as > 10 µM (inactive).
For `Nc1ccc(N2CCCCCC2)cc1`, the IC50 was > 10 µM (inactive).
In the case of `CC(C)(C)C(=O)NC(NC(=S)Nc1sc2c(c1C#N)CCCC2)C(Cl)(Cl)Cl` (configuration not stated), the IC50 is reported as > 10 µM (inactive).
For `CC(=O)C1=C(c2ccc(Br)cc2)C(=O)c2ccccc2C1=O`, the IC50 was 0.99 µM.
With `O=S(=O)(Nc1cccc2c1CCCC2)c1cccc(C(F)(F)F)c1` the IC50 was “inactive”.
With `O=C(NCc1ccccc1Cl)c1ccc(S(=O)(=O)Nc2cccc(C(F)(F)F)c2)cc1` the IC50 was > 10 µM (inactive).
For `CCOc1cc(/C=N/NC(=O)COc2cccc(C)c2)ccc1OC(=O)c1cccs1`, the IC50 was > 10 µM (inactive).
In the case of `COc1cc(/C=C/C(=O)OC2CC3CCC2(C)C3(C)C)ccc1O` (configuration not stated), the IC50 is reported as > 10 µM (inactive).
With `CCC(Cc1ccccc1)n1c(=S)[nH]c2ccccc2c1=O` (configuration not stated) the IC50 was > 10 µM (inactive).
For `CCOc1ccc(C(=O)C(CCC(CN(C)C)C(=O)c2ccc(OCC)cc2)CN(C)C)cc1` (configuration not stated), the IC50 was “inactive”.
For `O=C(NNc1ccccc1[N+](=O)[O-])Nc1ccc(Cl)c(Cl)c1`, the IC50 was > 10 µM (inactive).
For `O=C(OCn1ncc(Br)c(Br)c1=O)c1c(F)cccc1F`, the IC50 was 3.06 µM.
In the case of `COc1ccc(C(C(=O)NC2CCCCC2)N(C(=O)CCl)c2cccc(Cl)c2)cc1` (configuration not stated), the IC50 is reported as “inactive”.
In the case of `O=C1/C(=C/c2ccncc2)SC(=S)N1C1CCS(=O)(=O)C1` (configuration not stated), the IC50 is reported as “inactive”.
With `O=C(Nc1ccc(-c2nc3ccccc3o2)cc1)c1ccc(N2CCOCC2)c([N+](=O)[O-])c1` the IC50 was > 10 µM (inactive).
In the case of `Cc1nc(Nc2nc(CSc3nc4ccccc4[nH]3)cc(=O)[nH]2)nc2ccccc12`, the IC50 is reported as > 10 µM (inactive).
With `CC(=O)/C=C/n1c(=S)oc2ccccc21` the IC50 was “inactive”.
For `CN(C)c1ccc(/C=C2\SC(=O)N(CCc3nnc(N)s3)C2=O)cc1`, the IC50 was “inactive”.
`C/C(=N\NC(=O)COc1ccc(C(C)(C)C)cc1)c1ccc(N2CCOCC2)cc1` was tested, and the IC50 was “inactive”.
In the case of `CCCCn1c(NS(=O)(=O)c2ccc(C)cc2)c(S(=O)(=O)c2ccccc2)c2nc3ccccc3nc21`, the IC50 is reported as > 10 µM (inactive).
With `Cc1ccc(C(=O)Nc2cnc3ccccc3c2)cc1` the IC50 was 4.09 µM.
For `CC(=O)C1=C(S(=O)(=O)c2ccc(C)cc2)CS(=O)(=O)C1`, the IC50 was > 10 µM (inactive).
